Laboratory results: US6881419B2, “Vitamin formulation for enhancing bone strength” (priority 2002, dated 2005)

Tested on: osteoporosis
Assay: Case Study-1: bone scan, tolerability and energy in a subject with osteoporosis and rheumatoid arthritis
Details: person, placed on it at diagnosis of osteoporosis
Description: The exemplary case studies utilize subjects ranging from fifty-one (51) to eighty-three (83) years of age.

NCCCC(O)(P(=O)([O-])O)P(=O)(O)O.[Na+] [Fosimex]
Tolerability (stomach problems which developed into an ulcer): unable to tolerate
